The structures appear in SMILES notation. Where “and” joins values, the source holds several entries; their conditions need not be identical. Identical values can stand only once. Toxic doses and inconclusive results are not listed.

This experiment concerns BDF1 mice, intracerebral L1210 leukemia, survival T/C. Kind of experiment: NCI In Vivo Anticancer Drug Screen. Data for tumor model L1210 Leukemia (intracerebral) in B6D2F1 (BDF1) mice. The note with it: endpoint: mean survival time, higher = longer survival. The method, boiled down: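 Transplantable tumour-bearing mice, compound-treated vs vehicle controls; read-out survival, reported as T/C ratio.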

Where [1] appears, read: dose: 100.0 mg/kg/injection, schedule: Q01DX001 (ip), vehicle: carboxymethylcellulose (CMC).
Where [2] appears, read: dose: 62.0 mg/kg/injection, schedule: Q01DX Z (ip), vehicle: carboxymethylcellulose (CMC).
Setting [3] is: dose: 125.0 mg/kg/injection, schedule: Q01DX001 (ip), vehicle: carboxymethylcellulose (CMC).
[4] abbreviates: dose: 250.0 mg/kg/injection, schedule: Q01DX001 (ip), vehicle: carboxymethylcellulose (CMC).
Setting [5] is: dose: 2.0 mg/kg/injection, schedule: Q01DX009 (ip), vehicle: saline.

As for `C#CCOCC(CCl)OC(=O)Nc1ccccc1` (stereo unspecified), the T/C runs as follows: (dose: 25.0 mg/kg/injection, schedule: Q04DX003 (ip), vehicle: saline with Tween-80) 100 % of control; (dose: 50.0 mg/kg/injection, schedule: Q04DX003 (ip), vehicle: saline with Tween-80) 115 % of control; (dose: 100.0 mg/kg/injection, schedule: Q04DX003 (ip), vehicle: saline with Tween-80) 105 % of control; (dose: 200.0 mg/kg/injection, schedule: Q04DX003 (ip), vehicle: saline with Tween-80) 109 % of control; (dose: 400.0 mg/kg/injection, schedule: Q04DX003 (ip), vehicle: saline with Tween-80) 105 % of control.
Take `O=NN(CCCl)C(=O)CCCCC(=O)N(CCCl)N=O`: the T/C is, setting by setting: (dose: 44.0 mg/kg/injection, schedule: Q01DX001 (ip), vehicle: carboxymethylcellulose (CMC)) 95 % of control; (dose: 67.0 mg/kg/injection, schedule: Q01DX001 (ip), vehicle: carboxymethylcellulose (CMC)) 96 % of control; under setting [1], 94 % of control.
`O=NN(CCF)C(=O)NC1CCSCC1`: the T/C by setting is: (dose: 3.7 mg/kg/injection, schedule: Q01DX001 (ip), vehicle: other) 114 % of control and 123 % of control; (dose: 15.0 mg/kg/injection, schedule: Q01DX001 (ip), vehicle: other) 211 % of control and 223 % of control; (dose: 24.0 mg/kg/injection, schedule: Q01DX001 (ip), vehicle: other) 271 % of control; (dose: 31.0 mg/kg/injection, schedule: Q01DX001 (ip), vehicle: other) 460 % of control and 477 % of control; (dose: 36.0 mg/kg/injection, schedule: Q01DX001 (ip), vehicle: other) 276 % of control; (dose: 54.0 mg/kg/injection, schedule: Q01DX001 (ip), vehicle: other) 303 % of control. The T/C (dose: 62.0 mg/kg/injection, schedule: Q01DX001 (ip), vehicle: other) is 380 % of control.
Consider `O=NN(CCCl)C(=O)NC1C2CC3CC(C2)CC1C3` (stereo unspecified), for which the T/C reads like this: (dose: 22.0 mg/kg/injection, schedule: Q01DX001 (ip), vehicle: other) 109 % of control and 119 % of control; (dose: 45.0 mg/kg/injection, schedule: Q01DX001 (ip), vehicle: other) 175 % of control and 231 % of control; (dose: 91.0 mg/kg/injection, schedule: Q01DX001 (ip), vehicle: other) 340 % of control and 376 % of control; (dose: 144.0 mg/kg/injection, schedule: Q01DX001 (ip), vehicle: other) 153 % of control; (dose: 181.0 mg/kg/injection, schedule: Q01DX001 (ip), vehicle: other) 250 % of control and 335 % of control; (dose: 215.0 mg/kg/injection, schedule: Q01DX001 (ip), vehicle: other) 238 % of control. The T/C was 217 % of control (dose: 322.0 mg/kg/injection, schedule: Q01DX001 (ip), vehicle: other) and 103 % of control (dose: 362.0 mg/kg/injection, schedule: Q01DX001 (ip), vehicle: other).
For the molecule `O=C1NC2(CCCCC2)C(=O)N1CCN(CCCl)CCCl`, the T/C (dose: 0.78 mg/kg/injection, schedule: Q01DX009 (ip), vehicle: saline) is 101 % of control; the T/C (dose: 1.56 mg/kg/injection, schedule: Q01DX009 (ip), vehicle: saline) is 89 % of control; the T/C (dose: 3.12 mg/kg/injection, schedule: Q01DX009 (ip), vehicle: saline) was 95 % of control; the T/C (dose: 6.25 mg/kg/injection, schedule: Q01DX009 (ip), vehicle: saline) is 102 % of control; the T/C (dose: 12.5 mg/kg/injection, schedule: Q01DX009 (ip), vehicle: saline) was 91 % of control.
For the molecule `CNC(=N)c1ccc(NC(=N)c2ccc(NC(=O)Nc3cccc(NC(=O)Nc4ccc(C(=N)Nc5ccc(C(=N)NC)cc5)cc4)c3)cc2)cc1`, the T/C by setting is: (dose: 50.0 mg/kg/injection, schedule: Q01DX001 (ip), vehicle: water) 106 % of control; (dose: 75.0 mg/kg/injection, schedule: Q01DX001 (ip), vehicle: water) 109 % of control.
Consider `CCn1cnc2c(SC3CCCC3)ncnc21`, for which the T/C is, setting by setting: (dose: 30.0 mg/kg/injection, schedule: Q01DX015 (ip), vehicle: carboxymethylcellulose (CMC)) 118 % of control; (dose: 62.0 mg/kg/injection, schedule: Q01DX015 (ip), vehicle: carboxymethylcellulose (CMC)) 124 % of control; under setting [2], 118 % of control; under setting [3], 106 % of control; (dose: 125.0 mg/kg/injection, schedule: Q01DX015 (ip), vehicle: carboxymethylcellulose (CMC)) 123 % of control; (dose: 200.0 mg/kg/injection, schedule: Q01DX009 (ip), vehicle: carboxymethylcellulose (CMC)) 103 % of control. The T/C is, setting by setting: under setting [4], 112 % of control; (dose: 250.0 mg/kg/injection, schedule: Q01DX Z (ip), vehicle: carboxymethylcellulose (CMC)) 164 % of control; (dose: 375.0 mg/kg/injection, schedule: Q01DX015 (ip), vehicle: carboxymethylcellulose (CMC)) 169 % of control; (dose: 400.0 mg/kg/injection, schedule: Q01DX009 (ip), vehicle: carboxymethylcellulose (CMC)) 200 % of control; (dose: 500.0 mg/kg/injection, schedule: Q01DX001 (ip), vehicle: carboxymethylcellulose (CMC)) 108 % of control; (dose: 500.0 mg/kg/injection, schedule: Q01DX Z (ip), vehicle: carboxymethylcellulose (CMC)) 98 % of control. Besides, where the note is “dose: 1000.0 mg/kg/injection, schedule: Q01DX001 (ip), vehicle: carboxymethylcellulose (CMC)”, the T/C was 120 % of control.
On to `CCn1cnc2c(SC(C)C)ncnc21`, for which the T/C was 100 % of control (dose: 16.0 mg/kg/injection, schedule: Q01DX Z (ip), vehicle: carboxymethylcellulose (CMC)); 109 % of control (dose: 31.0 mg/kg/injection, schedule: Q01DX Z (ip), vehicle: carboxymethylcellulose (CMC)); 110 % of control under setting [2].
With `CN(Cc1cnc2nc(N[Si](C)(C)C)nc(N[Si](C)(C)C)c2n1)c1ccc(C(=O)NC(CCC(=O)O[Si](C)(C)C)C(=O)O[Si](C)(C)C)cc1` (stereo unspecified), the T/C is, setting by setting: (dose: 1.0 mg/kg/injection, schedule: Q01DX009 (ip), vehicle: Klucel (hydroxypropylcellulose) (HPC)) 118 % of control; under setting [5], 173 % of control; (dose: 4.0 mg/kg/injection, schedule: Q01DX009 (ip), vehicle: Klucel (hydroxypropylcellulose) (HPC)) 110 % of control; (dose: 4.0 mg/kg/injection, schedule: Q01DX009 (ip), vehicle: saline) 93 % of control.
Consider `CCC(=O)NC1=C(N2CC2)C(=O)C(NC(=O)CC)=C(N2CC2)C1=O`, for which the T/C (dose: 0.5 mg/kg/injection, schedule: Q01DX009 (ip), vehicle: saline) was 105 % of control and the T/C under setting [5] is 117 % of control.
Regarding `CS(=O)(=O)Nc1ccc(Nc2c3ccccc3nc3cc(Cl)ccc23)cc1`, the T/C (dose: 10.0 mg/kg/injection, schedule: Q01DX009 (ip), vehicle: saline) was 99 % of control; the T/C (dose: 10.0 mg/kg/injection, schedule: Q01DX009 (sc), vehicle: saline) is 99 % of control; the T/C (dose: 20.0 mg/kg/injection, schedule: Q01DX009 (ip), vehicle: saline) was 98 % of control; the T/C (dose: 20.0 mg/kg/injection, schedule: Q01DX009 (sc), vehicle: saline) is 102 % of control; the T/C (dose: 40.0 mg/kg/injection, schedule: Q01DX009 (ip), vehicle: saline) is 106 % of control; the T/C (dose: 40.0 mg/kg/injection, schedule: Q01DX009 (sc), vehicle: saline) is 114 % of control. In addition, the T/C by setting is: (dose: 80.0 mg/kg/injection, schedule: Q01DX009 (ip), vehicle: saline) 91 % of control; (dose: 80.0 mg/kg/injection, schedule: Q01DX009 (sc), vehicle: saline) 114 % of control.
In the case of `C[n+]1c2ccccc2c(Nc2ccc(NS(=O)(=O)CCCCN=C(N)N)cc2)c2ccc(N)cc21`, the T/C reads like this: (dose: 1.5 mg/kg/injection, schedule: Q01DX009 (ip), vehicle: water) 103 % of control; (dose: 3.0 mg/kg/injection, schedule: Q01DX009 (ip), vehicle: water) 121 % of control; (dose: 6.0 mg/kg/injection, schedule: Q01DX009 (ip), vehicle: water) 117 % of control; (dose: 12.0 mg/kg/injection, schedule: Q01DX009 (ip), vehicle: water) 101 % of control.
As for `CC1(NC(=O)N(CCCl)N=O)CCCC1`, the T/C (dose: 12.5 mg/kg/injection, schedule: Q01DX001 (ip), vehicle: carboxymethylcellulose (CMC)) was 91 % of control; the T/C (dose: 25.0 mg/kg/injection, schedule: Q01DX001 (ip), vehicle: carboxymethylcellulose (CMC)) was 102 % of control; the T/C (dose: 50.0 mg/kg/injection, schedule: Q01DX001 (ip), vehicle: carboxymethylcellulose (CMC)) was 100 % of control; the T/C under setting [1] is 100 % of control; the T/C under setting [3] is 347 % of control; the T/C (dose: 187.0 mg/kg/injection, schedule: Q01DX001 (ip), vehicle: carboxymethylcellulose (CMC)) is 285 % of control. For the same molecule, the T/C under setting [4] was 276 % of control.

Source of the values: PubChem BioAssay AID252 (DTP/NCI, 2004).
